Test results as given in patent US12415799B2, “Indazole-fused cyclic compound” (Zhejiang Yangli Pharmaceutical Technology Co., Ltd., priority 2020, dated 2025).

Experiment: In vivo pharmacokinetics study in dogs
Parameters: species or system beagle dogs
Excerpt: Experimental purposes: To test the drug concentration in plasma of beagle dogs at different times after intravenous and intragastric administration of the test compound by LC/MS/MS using beagle dogs as the experimental animals. To study the pharmacokinetics of the test compound in beagle dogs in vivo and evaluate their pharmacokinetic characteristics.
Two healthy male and two female beagle dogs were divided into two groups according to the principle of similar body weight, with one male and one female in IV group and one male and one female in PO group. Animals were purchased from Beijing Marshall Biotechnology Co., Ltd.
IV group: Appropriate number of samples were weighed and prepared into 1 mg/mL solution respectively, and the mixture was stirred and ultrasonicated to reach a clear state, and the solvent was 10% HP-β-CD, and the pH value was adjusted to 5.74.
PO group: Appropriate amount of the solution prepared in IV group was diluted to 0.2 mg/mL with 10% HP-β-CD, and the pH value was adjusted to 5.8.
Administration: After fasting overnight, IV group was administered intravenously, and the dosage of the test compound was 1 mg/kg; PO group was administered intragastrically, and the dosage of the test compound was 2 mg/kg.
After the beagle dogs in the intravenous injection group were given the test compound respectively, and 200 μL of blood was collected from the peripheral vein at 0.0833, 0.25, 0.5, 1, 2, 4, 6, 8, 12 and 24 hours, and placed in a commercialized anticoagulant tube added with EDTA-K2 in advance. After intragastric administration of the test compound, 200 μL of blood was collected from the peripheral vein at 0.25, 0.5, 1, 2, 4, 6, 8, 12 and 24 hours, respectively, and placed in a commercialized anticoagulant tube added with EDTA-K2 in advance. After centrifugation (3,200 g, 4° C., 10 minutes), the plasma was collected, transferred to a pre-cooled centrifuge tube, quickly frozen in dry ice, and stored in a refrigerator at −60° C. or lower, until LC-MS/MS analysis. Animals were allowed to eat 4 hours after administration. LC/MS/MS method was used to determine the content of the test compound in the plasma of beagle dogs after intravenous and intragastric administration. The linear range of the method was 2.00 to 2000 nM.

- AUC0-last (i.v. 1 mg/kg): 5.078 µM·h
- Cl (i.v. 1 mg/kg): 3.44 mL/min/kg
- T1/2 (i.v. 1 mg/kg): 23.1 h
- Vdss (i.v. 1 mg/kg): 6.60 L/kg
- AUC0-last (p.o. 2 mg/kg): 7.963 µM·h
- Cmax (p.o. 2 mg/kg): 495 nM
- T1/2 (p.o. 2 mg/kg): 19.2 h
- F % (p.o. 2 mg/kg vs i.v. 1 mg/kg): 78.2%
SMILES: FCCCN1CC[C@H](Nc2cnc(C3=C(CC(F)(F)F)CCCc4c3ccc3[nH]nc(F)c43)cn2)C1 [Compound 11A]
